Experimental data taken from ChEMBL document CHEMBL1158273, “New pyranocoumarins isolated from Calophyllum lanigerum and Calophyllum teysmannii” (J Nat Prod, 1996).
Activity calls are given as the source filed them. The calls are words filed in the database; no cut-off is given here.

What was measured:
[1] = system: H9; assay: Cytotoxicity against human H9 cells; type: cell-based
[2] = system: Human immunodeficiency virus 1; assay: Antiviral activity against HIV1 infected in human H9 cells assessed as effect on virus-induced cytopathic effect by tetrazolium/formazan assay; type: functional, organism-based; conditions: for EC50: Human immunodeficiency virus 1, H9
[3] = Therapeutic index, ratio of IC50 for human H9 cells to EC50 for HIV1; type: cell-based; conditions: read-out: Ratio IC50/EC50

| EC50 [2] | Compound | IC50 [1] | Activity [2] | selectivity ratio [3] |
| --- | --- | --- | --- | --- |
|  | C/C=C(\C)C(=O)c1c(OC)cc(OC)c2c(CCC)cc(=O)oc12 | 1000 nM | inactive |  |
|  | CCCC1CC(=O)Oc2c(C(=O)C(C)C(C)O)c(O)c3c(c21)OC(C)(C)C=C3 (centres undefined) [CALANOLIDE E2] | 2500 nM | inactive |  |
| 2840 nM | CCCc1cc(=O)oc2c3c(c4c(c12)OC(C)(C)C=C4)O[C@@H](C)[C@@H](C)[C@@H]3O [CALANOLIDE F] | 12700 nM |  | 4.5 |
|  | CC1CC(=O)Oc2c(C(=O)C(C)C(C)O)c(O)c3c(c21)OC(C)(C)C=C3 (centres undefined) [CORDATOLIDE E] | 14000 nM | inactive |  |
| 220 nM | CCCc1cc(=O)oc2c3c(c4c(c12)OC(C)(C)C=C4)O[C@@H](C)[C@H](C)[C@@H]3O [COSTATOLIDE] | 9800 nM |  | 44.5 |
|  | Cc1cc(=O)oc2c3c(c4c(c12)O[C@@H](C)[C@@H](C)[C@H]4O)OC(C)(C)C=C3 [PSEUDOCARDATOLIDE C] | 2600 nM | inactive |  |
